Patent US6248718A, “Lesion-directed dry dosage forms of antibacterial agents for the treatment of acute mucosal infections of the oral cavity” (priority 1999, dated 2001)
Entries after “also recorded” stand apart in the source; their conditions may differ.

Tests used:
[1] = Healing of canker sores in patients (Example VI); assay type: in vivo, human; settings: 50 mg four times a day, four days course, six patients
Description: Six (6) adult, otherwise healthy patients suffering from recurrent minor canker sores were selected for this study from July 10 to Nov. 12, 1998. The drug substance used for this study was crystalline penicillin G potassium salt, U.S.P. grade, purchased from Sigma Chemical Co., St. Louis, Mo. 63178 (Lot No. 57H1195).
On the first or the second day after the patients noticed the formation of the canker ulcers, 50 mg of penicillin G potassium was administered topically with a spatula or the handle of a teaspoon as dry powder directly over the canker ulcers, four times a day, i.e. after breakfast, after lunch, after supper and before bed time. The patients were advised to retain the antibiotic powder and its concentrated solution in a small pocket of saliva at the site of the ulcer and to avoid its excessive dilution by saliva from other parts of the oral cavity for one hour after each application of the antibiotic powder. No food or drink was allowed during this one-hour period.

[2] = system: bacteria in saliva of healthy volunteers; assay: Inhibition of bacterial growth in the saliva in vivo (Example V); settings: for bacterial colonies from saliva after topical medication: 1 hour, 0.1 ml saliva
Description: Five healthy adult volunteers, three men and two women, were asked to refrain from drinking or eating for two hours after breakfast. At the end of two hours, an aliquot of 0.1 ml of saliva was pipetted from the mouth of each volunteer and spread over the surface of a sheep blood agar plate with a sterile plastic loop. The inoculated blood agar plate was incubated in an aerobic atmosphere containing 5% CO2 as pre-medication control. Then 100 mg, 50 mg, 20 mg, 10 mg and 2 mg of penicillin G potassium dry powder, USP grade, were placed in the right buccal pouch with a spatula between the cheek and the lower gum of each volunteer, respectively. The volunteers were asked to retain the dissolved penicillin powder at the site of medication as concentrated as possible, not to be diluted by saliva from other parts of the mouth for one hour.
At the end of one hour, 0.1 ml of saliva from each volunteer was pipetted from the right buccal pouch where the medication was placed, and inoculated and spread onto the surface of a sheep blood agar plate. The inoculum was spread with a sterile plastic loop.

[3] = Concentrations of penicillin G potassium in saliva after oral ingestion (Example VIII); assay type: in vivo, human; settings: for concentration in human saliva: 30-min intervals to 3 hours
Description: Eight healthy adults, four men and four women, volunteered for this study. Two men and two women were given 500 mg each, and two men and two women were given 250 mg of USP grade penicillin G potassium powder each by mouth, respectively. These two doses were chosen for the study because they have been used as the standard adult oral doses for systemic treatment of human bacterial infections.
In this study, the drug powder was suspended in one teaspoonful of water and swallowed by the test subjects two hours after breakfast, followed by drinking an 8 Oz. glass of water. The test subjects refrained from drinking or eating for the next three hours. Six samples of saliva were collected from each subject at 30-minute intervals in succession in the next three hours. An aliquot of 0.2 ml from each saliva sample was transferred to 3.8 ml of nutrient broth. The mixture of the latter was forced to pass a bacterial filter. Two (2) ml of the bacteria-free filtrate was pipetted out into a sterile test tube and inoculated with 0.1 ml of a 1:1,000 dilution of a 12 hours broth culture of Staphylococcus aureus ATCC 29213 and incubated at 37° C. for 18 hours. A series of test tubes containing known concentrations, from 6.2 mcg/ml to 0.16 mcg/ml, of penicillin G potassium in 2 ml of nutrient broth was also inoculated with the same broth culture as standards.
Since 0.75 mcg/ml is the consistent MIC observed in this laboratory for Staphylococcus aureus ATCC 29213, the penicillin concentration in the saliva-broth filtrate must have been at a level below 0.75 mcg/ml.

[4] = system: microbes in the exudate covering the canker ulcer; assay: Congo red negative stain microscopy of canker ulcer exudate (Example VI); assay type: in vivo, human oral flora; settings: penicillin G potassium 50 mg four times a day, about 48 hours
Description: Before the initiation of treatment, a small amount of exudate was scraped off the grayish-white covering of the ulcer with a toothpick and mixed with a drop of aqueous solution of Congo red for a negative stain smear. After the dried smear was exposed to concentrated hydrochloric acid vapor, the negative-stained microorganisms were examined microscopically.
On day 2, about 48 hours after the medication was initiated, the patients collected an early morning sample of saliva immediately after getting up and submitted it to the laboratory for culture. While in the laboratory, a second sample of the residual exudate covering the ulcer was taken from the patient for a post-treatment follow-up microscopy after Congo red negative staining.

[5] = Local concentration of penicillin in saliva after a troche containing 50 mg penicillin G; assay type: in vivo, human; settings: 50 mg troche, end of one hour; 60 min
Description: The local concentration of penicillin in the saliva was determined as follows. […] This loculated pocket of saliva was not swallowed and was not to be diluted with excess saliva from other parts of the mouth for one hour. Two samples were taken for assay to determine the peak and trough local concentrations of penicillin during the one-hour duration of medicinal treatment. At the time when the troche was completely dissolved and one hour later, aliquots of 10 microliters were pipetted from this pocket of saliva solution at the site of medication, representing the peak level and the trough level of antibiotic concentration, and transferred into 10 ml of distilled water to make a 1:1.000 dilution and into 1 ml of distilled water to make a 1:100 dilution, respectively. The diluted saliva antibiotic solutions were passed through a sterile bacteria-filter to remove any bacterial or fungal contaminants of the oral flora.
For determination of the peak concentration, 1 ml of the bacteria-free filtrate was further diluted with 9 ml of nutrient broth to achieve a 1:10,000 dilution of the saliva. Then a serial two-fold dilution was made of this 1:10,000 diluted saliva sample with an equal volume of nutrient broth in a roll of test tubes to obtain a series of 1 ml aliquots of nutrient broth in which the saliva was diluted to 20,000, 40,000, 80,000, 160,000, 320,000, 640,000, 1,280,000 and 2,560,000 folds respectively. […] Thus the final dilutions of the saliva sample were in the range of 40,000 to 5,120,000 folds.
For determining the trough concentration, the entire 1 ml of the 1:100 diluted saliva filtrate was used to make the serial dilutions so that the final dilutions of saliva sample were in the range of 4,000 to 256,000 folds in the final test culture.
As control standards, a series of test tubes containing 1 ml of nutrient broth with varying concentrations of penicillin G potassium salt ranging from 0.1 units to 10 units/ml were similarly mixed with an equal volume of nutrient broth freshly inoculated with the standard tubes of Staphylococcus aureus. Both the test and control standard tubes were incubated at 37° C. for 18 hours. Among the test tubes showing no gross evidence of bacterial growth, the one containing the highest dilution of saliva and the one containing the least amount of penicillin G were considered as having the identical concentration of penicillin, i.e. the MIC of the staphylococcus aureus.

Q: With `CC1(C)S[C@@H]2[C@H](NC(=O)Cc3ccccc3)C(=O)N2[C@H]1C(=O)O` [penicillin G potassium] as the molecule, how does the “healing of canker sores” value [1] read?
A: healed completely

Q: And the “bacterial colonies from saliva after topical medication” value (“bacterial colonies from saliva” below) ([2]; 2 mg powder)?
A: a few isolated bacterial colonies; also recorded: partial inhibition of growth

Q: And the “bacterial colonies from saliva” value ([2]; 10 mg powder)?
A: no bacterial colonies

Q: And the “bacterial colonies from saliva” value ([2]; 20 mg powder)?
A: no bacterial colonies

Q: What about the “bacterial colonies from saliva” value ([2]; 50 mg powder) of the same molecule?
A: no bacterial colonies

Q: What about the “bacterial colonies from saliva” value ([2]; 100 mg powder) of the same molecule?
A: no bacterial colonies

Q: What about the “dose required for total cessation of bacterial growth in small pocket of saliva” value ([2]; powder, one-hour medication) of the same molecule?
A: at least 10 mg

Q: And the “concentration in human saliva” value ([3]; oral ingestion of 250 mg)?
A: < 15000 ng/mL

Q: What about the “concentration in human saliva” value ([3]; oral ingestion of 500 mg) of the same molecule?
A: < 15000 ng/mL

Q: And the “bacterial growth in saliva-broth filtrate” value ([3]; oral ingestion of 250 or 500 mg, S. aureus ATCC 29213, 48 tubes)?
A: vigorous bacterial growth

Q: And the “microbes in exudate after topical treatment” value [4]?
A: Only very rare cocci were found; also recorded: practically eliminated

Q: And the “local trough concentration in saliva” value [5]?
A: 7.5 to 15 mg/mL
